The results in this text go back to patent US11912716B2 (priority 2018, dated 2024).

The subject of one series is SD rats. The series is described as follows: addictive potential: induction of conditioned place preference (Example 14). The note with it: for CPP SCORE: morphine 10 mg/kg s.c. daily for four consecutive days, hydrochloride.
The next series concerns morphine-dependent mice. The series is described as follows: morphine-induced physical dependence, withdrawal jumping (Example 15). Format: in vivo, Kunming mice. The note with it: 1 g/kg, 3 hours before naloxone.
The subject of series [1] is morphine-induced conditioned place preference behavior in rats. The series is described as follows: morphine-induced conditioned place preference behavior, single oral administration before test (Example 12). The note with it: 70 mg/kg single oral dose 60 minutes before test, morphine 10 mg/kg s.c. for four days. The class given is in vivo, SD rats.
The subject of series [2] is formation of conditioned place preference induced by morphine in rats. Description: formation of conditioned place preference induced by morphine, concomitant administration (Example 13). Format: in vivo, SD rats. The note with it: 70 mg/kg oral 30 minutes before each morphine injection (10 mg/kg s.c.), four consecutive days.
The test system of series [3] is morphine-dependent animals. The series is described as follows: naloxone-precipitated morphine-withdrawal jumping (Example 10). Format: in vivo, Kunming mice.
[4] abbreviates: 0.125 g/kg intragastric, 1 hour after administration.
[5] abbreviates: 0.25 g/kg intragastric, 1 hour after administration.
Where [6] appears, read: 0.5 g/kg intragastric, 1 hour after administration.
[7] abbreviates: 0.5 g/kg intragastric, 3 hours after administration.

Structures are written as SMILES.

As for `CN1CC[C@]23c4c5ccc(O)c4O[C@H]2[C@@H](O)C=C[C@H]3[C@H]1C5.Cl` [morphine, morphine hydrochloride], the “induction of conditioned place preference (in words)” value with SD rats (morphine 10 mg/kg s.c.) is recorded as “induced conditioned place preference behavior”. Moreover, the figures for the “CPP SCORE” value in the series on SD rats and in the series with SD rats (listed as Morphine) were 208.3 ± 16.2 s and 208.3 ± 16.2 n = 10 s, respectively.
Consider `CC(=O)O[C@H]1[C@H](OC(C)=O)[C@H]([C@@](C)(O)CC[C@@H]2OC(C)(C)[C@H]3CC[C@]2(C)O3)[C@@]2(C)CC[C@@H]3OC(C)(C)[C@H](OC(C)=O)CC[C@@]3(C)[C@H]12` [3,12,13-triacetyl limaxol A, (3R,5aS,7aS,8R,9R,10R,10aR,10bS)-dodecahydro-8-((S)-2-hydroxy-4-((1S,2S,5R)-1,4,4-trimethyl-3,8-dioxa-bicyclo[3.2.1]octan-2-yl)butan-2-yl)-4,4,7a,10b-tetramethyl-1H-indeno[5,4-b]oxepine-3,9,10-triol triacetate], for which, in the series on morphine-dependent mice, the “Inhibition of morphine-withdrawal jumping” value amounted to 43.13%. For the same compound, the “Jumping times (Mean ± SEM)” value in the series with morphine-dependent mice worked out at 21.7 ± 6.9; in series [3] (setting [4]) it was 33.5 ± 4.1; in series [3] (setting [5]) it was 27.5 ± 9.4; in series [3] (setting [6]), 18.5 ± 2.4; in series [3] (setting [7]), 16.7 ± 4.9. For the same compound, the “CPP SCORE” value in series [1] (listed as Triacetyl limaxol A) came to 318.5 ± 90.9 n = 7 s; in series [1] (listed as triacetyl limaxol A), 318.5 ± 90.9 s; in series [2] (listed as Triacetyl limaxol A) it was 223.8 ± 34.0 n = 6 s; in series [2] (listed as triacetyl limaxol A), 318.5 ± 90.9 s. The “% Inhibition of morphine-withdrawal jumping” value in series [3] (setting [4]) is 3.0 ± 12.2%; in series [3] (setting [5]), 21.1 ± 28.2%; in series [3] (setting [6]), 48.2 ± 7.5%; in series [3] (setting [7]) it was 45.0 ± 17.0%.
`CCC(=O)C(CC(C)N(C)C)(c1ccccc1)c1ccccc1` (stereo not drawn) [methadone, reference compound]: the “Jumping times (Mean ± SEM)” value in series [3] (methadone 20 mg/kg intragastric, 1 hour before naloxone, jumpings within 30 minutes) is 33.8 ± 3.3. For the same compound, the “withdrawal jumping symptoms versus morphine model group (in words)” value in series [3] (methadone 20 mg/kg, 1 hour after administration) is recorded as “significantly reduced”.
Regarding `CC(=O)O[C@H]1[C@H](OC(C)=O)[C@H]([C@@](C)(O)CC[C@]2(C)OC(C)(C)[C@H]3CC[C@]2(C)O3)[C@@]2(C)CC[C@@H]3OC(C)(C)[C@H](O)CC[C@@]3(C)[C@H]12` [limaxol A, reference compound], in the series on morphine-dependent mice, the “Inhibition of morphine-withdrawal jumping” value is reported as 21.26% and the “Jumping times (Mean ± SEM)” value turned out to be 30.0 ± 9.7.
